Activity calls are given as the source filed them. No cut-off for these calls is given here.
Key:
[1] = Antioxidant activity assessed as H2O2 free radical scavenging activity at 100 uM by UV-Vis spectrophotometric analysis; type: functional
Streptococcus pyogenes = assay: Antibacterial activity against Streptococcus pyogenes ATCC 12358 after 24 hrs by well diffusion method; type: functional
[2] = Antioxidant activity assessed as DPPH free radical scavenging activity at 100 uM by UV-Vis spectrophotometric analysis; type: functional
Erythrocyte = assay: Antiinflammatory activity in human RBC at 10 to 500 uM by membrane stabilization method; type: functional, cell-based
Staphylococcus aureus = assay: Antibacterial activity against Staphylococcus aureus ATCC 11632 after 24 hrs by well diffusion method; type: functional
Pseudomonas aeruginosa = assay: Antibacterial activity against Pseudomonas aeruginosa ATCC 10145 after 24 hrs by well diffusion method; type: functional
Klebsiella pneumoniae = assay: Antibacterial activity against Klebsiella pneumoniae ATCC 10031 after 24 hrs by well diffusion method; type: functional
[3] = Antioxidant activity assessed as anti-inflammatory activity by measuring decrease in bovine serum albumin denaturation at 10 to 500 uM; type: functional

O=C(/C=C/c1ccccc1)c1cccc(NC(=O)c2cc(-c3ccncc3)n[nH]2)c1
IC50 [1]: 71.5 µM
inhibition zone (IZ) (Streptococcus pyogenes): 13.2 mm
IC50 [2]: 67.1 µM
Activity (Erythrocyte): Active
inhibition zone (IZ) (Staphylococcus aureus): 7.5 mm
inhibition zone (IZ) (Pseudomonas aeruginosa): 9.5 mm

O=C(/C=C/c1ccccc1)c1ccccc1 [CHALCONE]
IC50 [1]: 98.1 µM
inhibition zone (IZ) (Streptococcus pyogenes): 6.5 mm
IC50 [2]: 70.9 µM
Activity (Erythrocyte): Active
inhibition zone (IZ) (Staphylococcus aureus): 6 mm
inhibition zone (IZ) (Pseudomonas aeruginosa): 7 mm
inhibition zone (IZ) (Klebsiella pneumoniae): 5 mm

O=C(/C=C/c1cccs1)c1cccc(NC(=O)c2cc(-c3ccncc3)n[nH]2)c1
IC50 [1]: 70 µM
inhibition zone (IZ) (Streptococcus pyogenes): 13.5 mm
IC50 [2]: 27.6 µM
Activity [3]: Active
Activity (Erythrocyte): Active
inhibition zone (IZ) (Staphylococcus aureus): 15.4 mm
inhibition zone (IZ) (Pseudomonas aeruginosa): 8.6 mm
inhibition zone (IZ) (Klebsiella pneumoniae): 7.5 mm

O=C(/C=C/c1ccccc1Cl)c1cccc(NC(=O)c2cc(-c3ccncc3)n[nH]2)c1
IC50 [1]: 79.8 µM
inhibition zone (IZ) (Streptococcus pyogenes): 7.4 mm
IC50 [2]: 27.7 µM
Activity [3]: Active
Activity (Erythrocyte): Active
inhibition zone (IZ) (Pseudomonas aeruginosa): 8.3 mm

O=C(/C=C/c1ccc(Cl)cc1Cl)c1cccc(NC(=O)c2cc(-c3ccncc3)n[nH]2)c1
IC50 [1]: 80.9 µM
inhibition zone (IZ) (Streptococcus pyogenes): 15.5 mm
IC50 [2]: 35 µM
Activity [3]: Active
Activity (Erythrocyte): Active
inhibition zone (IZ) (Staphylococcus aureus): 17.5 mm
inhibition zone (IZ) (Pseudomonas aeruginosa): 12.2 mm
inhibition zone (IZ) (Klebsiella pneumoniae): 6.8 mm

O=C(/C=C/c1ccc([N+](=O)[O-])cc1)c1cccc(NC(=O)c2cc(-c3ccncc3)n[nH]2)c1
IC50 [1]: 64.6 µM
inhibition zone (IZ) (Streptococcus pyogenes): 19.3 mm
IC50 [2]: 52.8 µM
Activity (Erythrocyte): Active
inhibition zone (IZ) (Staphylococcus aureus): 20.2 mm
inhibition zone (IZ) (Pseudomonas aeruginosa): 10.4 mm

O=C(/C=C/c1cccc2ccccc12)c1cccc(NC(=O)c2cc(-c3ccncc3)n[nH]2)c1
IC50 [1]: 72.1 µM
inhibition zone (IZ) (Streptococcus pyogenes): 15.4 mm
IC50 [2]: 64.5 µM
Activity [3]: Active
Activity (Erythrocyte): Active
inhibition zone (IZ) (Staphylococcus aureus): 12.3 mm
inhibition zone (IZ) (Pseudomonas aeruginosa): 6.3 mm

CN(C)c1ccc(/C=C/C(=O)c2cccc(NC(=O)c3cc(-c4ccncc4)n[nH]3)c2)cc1
IC50 [1]: 60.9 µM
inhibition zone (IZ) (Streptococcus pyogenes): 12.4 mm
IC50 [2]: 41.9 µM
Activity [3]: Active
Activity (Erythrocyte): Active
inhibition zone (IZ) (Staphylococcus aureus): 7.8 mm
inhibition zone (IZ) (Pseudomonas aeruginosa): 10.5 mm
inhibition zone (IZ) (Klebsiella pneumoniae): 5.9 mm

NC(=O)c1cc(-c2ccncc2)n[nH]1
IC50 [1]: 89.1 µM
inhibition zone (IZ) (Streptococcus pyogenes): 6 mm
IC50 [2]: 82.1 µM
Activity (Erythrocyte): Active
inhibition zone (IZ) (Staphylococcus aureus): 5 mm
inhibition zone (IZ) (Pseudomonas aeruginosa): 4 mm
inhibition zone (IZ) (Klebsiella pneumoniae): 5 mm

O=C(/C=C/c1ccco1)c1cccc(NC(=O)c2cc(-c3ccncc3)n[nH]2)c1
IC50 [1]: 72.3 µM
inhibition zone (IZ) (Streptococcus pyogenes): 13.2 mm
IC50 [2]: 41.8 µM
Activity [3]: Active
Activity (Erythrocyte): Active
inhibition zone (IZ) (Staphylococcus aureus): 10.7 mm
inhibition zone (IZ) (Pseudomonas aeruginosa): 5.7 mm
inhibition zone (IZ) (Klebsiella pneumoniae): 5.8 mm

CC(C)c1ccc(/C=C/C(=O)c2cccc(NC(=O)c3cc(-c4ccncc4)n[nH]3)c2)cc1
IC50 [1]: 60.2 µM
inhibition zone (IZ) (Streptococcus pyogenes): 9.4 mm
IC50 [2]: 52.3 µM
Activity [3]: Active
Activity (Erythrocyte): Active
inhibition zone (IZ) (Staphylococcus aureus): 6.8 mm
inhibition zone (IZ) (Pseudomonas aeruginosa): 9.6 mm

O=C(/C=C/c1ccc(F)cc1)c1cccc(NC(=O)c2cc(-c3ccncc3)n[nH]2)c1
IC50 [1]: 58.7 µM
IC50 [2]: 56 µM
Activity (Erythrocyte): Active
inhibition zone (IZ) (Staphylococcus aureus): 5.4 mm
inhibition zone (IZ) (Pseudomonas aeruginosa): 12.1 mm

COc1cc(/C=C/C(=O)c2cccc(NC(=O)c3cc(-c4ccncc4)n[nH]3)c2)cc(OC)c1OC
IC50 [1]: 52.9 µM
inhibition zone (IZ) (Streptococcus pyogenes): 11.6 mm
IC50 [2]: 54.5 µM
Activity [3]: Active
Activity (Erythrocyte): Active
inhibition zone (IZ) (Staphylococcus aureus): 12.6 mm
inhibition zone (IZ) (Pseudomonas aeruginosa): 5.2 mm

COc1ccc(/C=C/C(=O)c2cccc(NC(=O)c3cc(-c4ccncc4)n[nH]3)c2)cc1
IC50 [1]: 54.6 µM
inhibition zone (IZ) (Streptococcus pyogenes): 10.6 mm
IC50 [2]: 38.4 µM
Activity (Erythrocyte): Active
inhibition zone (IZ) (Staphylococcus aureus): 4.5 mm
inhibition zone (IZ) (Pseudomonas aeruginosa): 12.5 mm
inhibition zone (IZ) (Klebsiella pneumoniae): 5.2 mm

O=C(/C=C/c1ccc(Cl)cc1)c1cccc(NC(=O)c2cc(-c3ccncc3)n[nH]2)c1
IC50 [1]: 78.9 µM
inhibition zone (IZ) (Streptococcus pyogenes): 15.3 mm
IC50 [2]: 63.9 µM
Activity [3]: Active
Activity (Erythrocyte): Active
inhibition zone (IZ) (Staphylococcus aureus): 12.3 mm
inhibition zone (IZ) (Pseudomonas aeruginosa): 10.2 mm

COc1ccccc1/C=C/C(=O)c1cccc(NC(=O)c2cc(-c3ccncc3)n[nH]2)c1
IC50 [1]: 56.7 µM
inhibition zone (IZ) (Streptococcus pyogenes): 9.7 mm
IC50 [2]: 41.7 µM
Activity (Erythrocyte): Active
inhibition zone (IZ) (Staphylococcus aureus): 6.8 mm
inhibition zone (IZ) (Pseudomonas aeruginosa): 8.8 mm

Cc1ccc(/C=C/C(=O)c2cccc(NC(=O)c3cc(-c4ccncc4)n[nH]3)c2)cc1
IC50 [1]: 64.6 µM
inhibition zone (IZ) (Streptococcus pyogenes): 7.9 mm
IC50 [2]: 69.4 µM
Activity (Erythrocyte): Active
inhibition zone (IZ) (Staphylococcus aureus): 5.9 mm
inhibition zone (IZ) (Pseudomonas aeruginosa): 7.8 mm

From ChEMBL document CHEMBL3867479, “Multiple biological activities and molecular docking studies of newly synthesized 3-(pyridin-4-yl)-1H-pyrazole-5-carboxamide chalcone hybrids” (Bioorg Med Chem Lett, 2016)
